Reference: patent publication US12384801B2, “Benzothiophene, thienopyridine and thienopyrimidine derivatives for the modulation of sting” (CTXT PTY LTD, priority 2019, dated 2025)

Experiments:
human STING (HAQ) [1] = target: T1, human STING (HAQ) (Homo sapiens (Human), UniProt Q86WV6, G230A/H232R/R293Q); assay: Differential scanning fluorimetry (DSF), huSTING (HAQ); format: binding; conditions: compound 100 μM, 2 μM protein, Tm with ligand minus Tm of protein alone (1% DMSO)
Procedure: (§1) Data were analyzed using “Meltdown analysis” protocol described by Rosa (2015).

human STING (WT) [2] = target: T2, human STING (WT) (Homo sapiens (Human), UniProt Q86WV6, H232R); assay: Differential scanning fluorimetry (DSF), huSTING (WT); format: binding; conditions: compound 100 μM, 2 μM protein, Tm with ligand minus Tm of protein alone (1% DMSO)
T2 sequence (Q86WV6 149-345 H232R): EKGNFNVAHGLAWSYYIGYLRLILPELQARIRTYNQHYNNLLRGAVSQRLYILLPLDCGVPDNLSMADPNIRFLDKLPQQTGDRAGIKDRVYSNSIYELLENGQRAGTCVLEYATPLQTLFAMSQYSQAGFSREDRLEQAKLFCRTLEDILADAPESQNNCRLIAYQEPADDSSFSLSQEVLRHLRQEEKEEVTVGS
Procedure: as §1

[3] = target: human HAQ isoform of STING (Homo sapiens (Human), UniProt Q86WV6, G230A/H232R/R293Q/R71H); assay: THP-1 STING Lucia ISG reporter cell line assay; format: cell-based; conditions: 24 h incubation, luminescence, normalized to ML RR-S2 CDA 40 μM; read-out: EC50 THP-I STING Lucia ISG cells
human HAQ isoform of STING, sequence (Q86WV6 whole entry R71H/G230A/H232R/R293Q, canonical isoform): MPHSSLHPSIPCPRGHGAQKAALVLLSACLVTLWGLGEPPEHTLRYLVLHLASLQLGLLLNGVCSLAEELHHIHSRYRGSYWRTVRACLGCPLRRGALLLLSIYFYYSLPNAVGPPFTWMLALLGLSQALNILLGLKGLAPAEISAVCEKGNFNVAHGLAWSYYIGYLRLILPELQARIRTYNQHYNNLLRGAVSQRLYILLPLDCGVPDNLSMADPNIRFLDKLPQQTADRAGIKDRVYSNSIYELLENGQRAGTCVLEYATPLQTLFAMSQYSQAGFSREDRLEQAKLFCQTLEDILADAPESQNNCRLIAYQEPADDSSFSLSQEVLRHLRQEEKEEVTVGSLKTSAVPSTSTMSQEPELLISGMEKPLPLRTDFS
Procedure: (§2) THP-1 STING Lucia ISG cells (InvivoGen #thpl-isg) were cultured in RPMI-1640 containing 2 mM L-glutamine, 25 mM HEPES, 100 μg/mL Normocin (InvivoGen) and 10% heat-inactivated FBS. Cells were seeded at a density of 7×10^5 cells/mL, maintained at 37° C./5% CO2, and passaged every 3-4 days. Selection pressure was maintained by the addition of 100 μg/mL Zeocin every second passage.
(§3) Assay conditions: cells were harvested and resuspended at a concentration of 5×10^5 cells/mL in fresh growth media. Of this cell preparation 20 μL per well was dispensed into 384 well cell culture plates (Greiner, #781098X) and incubated at 37° C./5% CO2 for 2 hours.
(§4) Concentration Response Curves (commonly 11 doses) were prepared by 2.5 fold serial dilution starting from 10 mM compound stock solution in DMSO. Compound dilutions were transferred into the cell culture plates using a pintool (0.1 μL transfer), control wells were matched for DMSO. Positive control wells received ML RR-S2 CDA (Med Chem Express HY12885B) in 5 μL of media to a final concentration of 40 μM. All other wells received additional 5 μL of media only to equalize volume. The plates were incubated for 24 h at 37° C./5% CO2.
(§5) For the detection step, QUANTI-Luc (InvivoGen #rep-qlc1) was prepared according to manufacturer's instruction and 10 μL were added per well to the culture plates. Plates were shaken for ten seconds on an orbital shaker and left in the dark at room temperature for two minutes, before luminescence was read on a Perkin Elmer Envision plate reader.
(§6) Data analysis: Luminescence raw data was normalized % activity relative to the signal of the positive control wells and negative control wells which were not treated with compound. The following formula was used to calculate normalized % activity from raw signals: % activity=(sample−negative)/(positive−negative)
(§7) The THP-1 STING Lucia ISG cell EC50 provides an assessment of activity at the human HAQ isoform of STING. For assessing compound activity against the WT human STING isoform, an equivalent method was conducted where the cells used were THP-1-Dual KI-hSTING-R232 (InvivoGen #thpd-r232).

WT human STING isoform = WT human STING isoform (Homo sapiens (Human), UniProt Q86WV6, H232R); assay: THP-1-Dual KI-hSTING-R232 reporter cell line assay; format: cell-based; conditions: 24 h incubation, luminescence, normalized to ML RR-S2 CDA 40 μM; read-out: EC50 THP-1 Dual KI-hSTING-R232 cells
WT human STING isoform, sequence (Q86WV6 whole entry H232R, canonical isoform): as the sequence (Q86WV6 whole entry R71H/G230A/H232R/R293Q, canonical isoform) above, with H71R, A230G, Q293R counted along it
Procedure: as §2, §3, §4, §5, §6, §7

human STING (HAQ) [4] = target: T1, human STING (HAQ); assay: biochemical
human STING (WT) [5] = target: T2, human STING (WT); assay: biochemical
human STING (WT) [6] = target: T2, human STING (WT); assay: Surface Plasmon Resonance (SPR), STING (WT); conditions: read-out: SPR (WT) KD; biotinylated STING on streptavidin chip, 8° C.
human STING (HAQ) [7] = target: T1, human STING (HAQ); assay: Surface Plasmon Resonance (SPR), STING (HAQ); conditions: read-out: SPR (HAQ) KD; biotinylated STING on streptavidin chip, 8° C.

T1 sequence (Q86WV6 149-345 G230A/H232R/R293Q): as the sequence (Q86WV6 149-345 H232R) above, with G82A, R145Q counted along it

NC(=O)c1ccc2c(c1)nc(-c1c(C(=O)O)sc3cccc(Cl)c13)n2CCCn1c(-c2c(C(=O)O)sc3cccc(Cl)c23)nc2cc(C(N)=O)ccc21 (single isomer, unassigned) [Example 4.2, 3,3′-(Propane-1,3-diylbis(5-carbamoyl-1H-benzo[d]imidazole-1,2-diyl))bis(4-chlorobenzo[b]thiophene-2-carboxylic acid)]
ΔTm at 100 µM (human STING (HAQ) [1]): 4.56 °C | DSF huSTING (WT) ΔTm (human STING (WT) [2]): −0.76 °C | EC50 [3]: > 40 µM | EC50 (WT human STING isoform): 19 µM | Kd (human STING (HAQ) [4]): 16.6 µM | Kd (human STING (WT) [5]): 23 µM

NC(=O)c1ccc2c(c1)nc(-c1c(C(=O)O)sc3c(F)ccc(Cl)c13)n2CCn1c(-c2c(C(=O)O)sc3c(F)ccc(Cl)c23)nc2cc(C(N)=O)ccc21 (single isomer, unassigned) [Example 2.1, 3,3′-(Ethane-1,2-diylbis(5-carbamoyl-1H-benzo[d]imidazole-1,2-diyl))bis(4-chloro-7-fluorobenzo[b]thiophene-2-carboxylic acid)]
ΔTm at 100 µM (human STING (HAQ) [1]): 32 °C | DSF huSTING (WT) ΔTm (human STING (WT) [2]): 21 °C | EC50 [3]: 1.83 µM | EC50 (WT human STING isoform): 0.518 µM | Kd (human STING (WT) [6]): 31 nM | Kd (human STING (HAQ) [7]): 7.4 nM

COc1nccc2sc(C(=O)O)c(-c3nc4cc(C(N)=O)ccc4n3CCn3c(-c4c(C(=O)O)sc5ccnc(OC)c45)nc4cc(C(N)=O)ccc43)c12 [Example 7, 3,3′-(Ethane-1,2-diylbis(5-carbamoyl-1H-benzo[d]imidazole-1,2-diyl))bis(4-methoxythieno[3,2-c]pyridine-2-carboxylic acid)]
ΔTm at 100 µM (human STING (HAQ) [1]): 6.96 °C | ΔTm at 100 µM (human STING (WT) [2]): 0.6 °C | EC50 [3]: > 40 µM | EC50 (WT human STING isoform): 7.52 µM | Kd (human STING (WT) [6]): 80000 nM | Kd (human STING (HAQ) [7]): 28000 nM

COc1cccc2sc(C(=O)O)c(-c3nc4cc(C(N)=O)ccc4n3CCn3c(-c4c(C(=O)O)sc5cccc(OC)c45)nc4cc(C(N)=O)ccc43)c12 (single isomer, unassigned) [Example 5.1, 3,3′-(Ethane-1,2-diylbis(5-carbamoyl-1H-benzo[d]imidazole-1,2-diyl))bis(4-methoxybenzo[b]thiophene-2-carboxylic acid)]
DSF huSTING (HAQ) ΔTm (human STING (HAQ) [1]): 23.59 °C | DSF huSTING (WT) ΔTm (human STING (WT) [2]): 6.4 °C | EC50 [3]: > 40 µM | EC50 (WT human STING isoform): 13.6 µM | Kd (human STING (WT) [6]): 692 nM | Kd (human STING (HAQ) [7]): 20.9 nM

Cc1cccc2sc(C(=O)O)c(-c3nc4cc(C(N)=O)ccc4n3CCn3c(-c4c(C(=O)O)sc5cccc(C)c45)nc4cc(C(N)=O)ccc43)c12 (single isomer, unassigned) [Example 15.2, 3,3′-(Ethane-1,2-diylbis(5-carbamoyl-1H-benzo[d]imidazole-1,2-diyl))bis(4-methylbenzo[b]thiophene-2-carboxylic acid)]
DSF huSTING (HAQ) ΔTm (human STING (HAQ) [1]): 31.87 °C | DSF huSTING (WT) ΔTm (human STING (WT) [2]): 20.41 °C | EC50 [3]: 0.272 µM | EC50 (WT human STING isoform): 0.199 µM | Kd (human STING (WT) [6]): 191 nM | Kd (human STING (HAQ) [7]): 4.98 nM

NC(=O)c1ccc2c(c1)nc(-c1c(C(=O)O)sc3cccc(Cl)c13)n2CCCn1c(-c2c(C(=O)O)sc3cccc(Cl)c23)nc2cc(C(N)=O)ccc21 (single isomer, unassigned) [Example 4.1, 3,3′-(Propane-1,3-diylbis(5-carbamoyl-1H-benzo[d]imidazole-1,2-diyl))bis(4-chlorobenzo[b]thiophene-2-carboxylic acid)]
DSF huSTING (HAQ) ΔTm (human STING (HAQ) [1]): 2.85 °C | DSF huSTING (WT) ΔTm (human STING (WT) [2]): −0.82 °C | EC50 [3]: > 40 µM | EC50 (WT human STING isoform): > 40 µM | Kd (human STING (WT) [6]): 500000 nM | Kd (human STING (HAQ) [7]): 35100 nM
